Experimental data as given in patent US20230065562A1, “DUAL CONTROLS FOR THERAPEUTIC CELL ACTIVATION OR ELIMINATION” (Bellicum Pharmaceuticals, Inc., priority 2015, published 2023).

Key:
[1] = test system: iCasp9-ΔCD19-transduced MSCs; assay: In vivo killing studies of iCasp9-ΔCD19 MSCs in murine model; design: species or system SCID mice
Description: All mouse experiments were performed in accordance with the Baylor College of Medicine animal husbandry guidelines. To assess the persistence of modified MSCs in vivo, a SCID mouse model was used in conjunction with an in vivo imaging system. MSCs were transduced with retroviruses coding for the enhanced green fluorescent protein-firefly luciferase (eGFP-FFLuc) gene alone or together with the iCasp9-ΔCD19 gene. Cells were sorted for eGFP positivity by fluorescence activated cell sorting using a MoFlo flow cytometer (Beckman Coulter, Fullerton, Calif.). Doubly transduced cells were also stained with PE-conjugated anti-CD19 and sorted for PE-positivity. SCID mice (8-10 weeks old) were injected subcutaneously with 5×10^5 MSCs with and without iCasp9-ΔCD19 in opposite flanks. […] For in vivo imaging of MSCs expressing eGFP-FFLuc, mice were injected intraperitoneally with D-luciferin (150 mg/kg) and analyzed using the Xenogen-IVIS Imaging System. Total luminescence (a measurement proportional to the total labeled MSCs deposited) at each time point was calculated by automatically defining regions-of-interest (ROIs) over the MSC implantation sites. These ROIs included all areas with luminescence signals at least 5% above background. Total photon counts were integrated for each ROI and an average value calculated. […]

[2] = test system: iC9 T cells (pBP0220, GFP-Fluc); assay: In vivo apoptotic activation in NSG mice, iC9 T cells (IVIS imaging, spleen FACS); design: species or system mouse
Description: PBMCs from donor 676 were activated and co-transduced with one of the off-switches and GFP-Fluc retroviruses. Eleven days after transduction, cells were analyzed for transduction efficiency with GFP and anti-CD3/anti-CD19 antibodies (FIG. 109A). […] The CD19^+ MFI for the different T cell populations were: iC9=15.07, iRC9=14.38, and iRmC9=13.39. The cells were collected, counted, washed, and resuspended at 1×10^6 cells in 100 μl PBS for each tail vein mouse injection (Table 10) (time=−18 hr). […] IVIS imaging was performed at −14, 0, 5, 24 and 29 hours. Mice were sacrificed and spleens were collected for FACS analysis with hCD3, hCD19 and mCD45 antibodies. […] The higher percentage of remaining iRmC9 T cells observed may be due to an artifact of normalizing the no drug group.
PBMCs from donor 676 were activated and co-transduced with retroviruses encoding the pBP0220, 1310, 1327 vectors and the GFP-Fluc plasmid. (FIG. 109A) Eleven days post transduction, the cells were analyzed for CD19 and GFP transduction efficiency prior to injection into mice. (FIGS. 109B & C) NSG mice were injected i.v. with 107 T cells co-transduced with GFP-Fluc per mouse and suicide drugs were injected i.p. the next day. Bioluminescence of cells was assessed at −14, 0, 5, 24, and 29 hours post-drug administration. […]

CC[C@H](C(=O)N1CCCC[C@H]1C(=O)O[C@H](CCc1ccc(OC)c(OC)c1)c1cccc(OCC(=O)NCC(CNC(=O)COc2cccc([C@@H](CCc3ccc(OC)c(OC)c3)OC(=O)[C@@H]3CCCCN3C(=O)[C@@H](CC)c3cc(OC)c(OC)c(OC)c3)c2)CN(C)C)c1)c1cc(OC)c(OC)c(OC)c1 [AP20187]
proportion of surviving iCasp9-positive cells after one week ([1]; qPCR iCasp9/eGFP copy ratio): 0.7%
killing / depletion of iCasp9-positive cells in vivo ([1]; two i.p. injections of 50 μg CID 24 h apart): > 99%

CC[C@H](C(=O)N1CCCC[C@H]1C(=O)O[C@H](CCc1ccc(OC)c(OC)c1)c1cccc(OCC(=O)NCCNC(=O)COc2cccc([C@@H](CCc3ccc(OC)c(OC)c3)OC(=O)[C@@H]3CCCCN3C(=O)[C@@H](CC)c3cc(OC)c(OC)c(OC)c3)c2)c1)c1cc(OC)c(OC)c(OC)c1 [rimiducid]
iC9 T cells remained in splenocytes compared to no drug- or rapamycin-treated groups ([2]; 5 mg/kg rimiducid i.p., spleen FACS, FIG. 109D): ~20%
removal of iC9 T cells / bioluminescence signal (IVIS imaging) ([2]; NSG mice, 5 mg/kg rimiducid or 10 mg/kg rapamycin i.p., FIGS. 109B & C): induced significant removal
